The record followed here is PMC7279487, “Dual Target Ligands with 4-tert-Butylphenoxy Scaffold as Histamine H3 Receptor Antagonists and Monoamine Oxidase B Inhibitors” (International Journal of Molecular Sciences, 2020).

In series [1] the target is T1, hMAO B (Homo sapiens, UniProt P27338).
T1 construct: purchased Sigma Aldrich M7441
T1 sequence (P27338 1-520): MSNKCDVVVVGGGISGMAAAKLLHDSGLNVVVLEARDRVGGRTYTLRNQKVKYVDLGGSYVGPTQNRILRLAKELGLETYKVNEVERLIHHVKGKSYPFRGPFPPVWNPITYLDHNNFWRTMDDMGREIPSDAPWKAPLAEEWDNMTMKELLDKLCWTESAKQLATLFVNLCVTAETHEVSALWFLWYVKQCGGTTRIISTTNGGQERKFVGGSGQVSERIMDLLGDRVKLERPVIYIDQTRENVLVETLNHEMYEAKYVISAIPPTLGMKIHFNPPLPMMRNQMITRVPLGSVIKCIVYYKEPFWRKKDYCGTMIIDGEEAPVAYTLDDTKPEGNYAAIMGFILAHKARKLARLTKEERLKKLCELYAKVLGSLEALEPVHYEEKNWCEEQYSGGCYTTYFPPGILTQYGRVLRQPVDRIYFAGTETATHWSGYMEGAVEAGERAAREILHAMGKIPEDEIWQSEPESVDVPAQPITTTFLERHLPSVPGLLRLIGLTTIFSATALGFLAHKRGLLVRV
Nature of the series: hMAO B inhibition, fluorometric Amplex Red MAO assay. The series is classed as biochemical.

Series [2] concerns HEK-293 cells. Nature of the series: toxicity in HEK-293 cells (EZ4U). The series is classed as cell-based, human. Particulars: 48 h incubation; EZ4U. The procedure: The used reference cytostatic drug doxorubicin (DX) decreased cell viability <50% under the same conditions at very low concentrations of 0.2 and 0.05 µM. […] Oxidative damage was induced by very high toxic levels of hydrogen peroxide (H2O2; 300 µM), the popular cell model for PD research, in neuroblastoma SH-SY5Y cell line. […] Salsolinol (SAL) was used at a concentration of 50 µM as the reference compound with the proven neuroprotection activity.
The HEK-293 cells were seeded at a concentration of 1.5 × 10^4 cells/well in 200 μL culture medium and incubated for 24 h at 37 °C and 5% CO2. […] Then, 25 μL EZ4U labelling mixture (Biomedica, Vienna, Austria) was added and the cells were incubated for 2 h. The spectrophotometric absorbance of the samples was measured using a microplate reader (EnSpire, PerkinElmer, Waltham, MA, USA) at 492 nm. All measurements were performed in triplicate, and results are shown as mean ± SD.

The subject of series [3] is haloperidol-induced catalepsy. Nature of the series: haloperidol-induced catalepsy, bar test. Particulars: for Times of Observation of Catalepsy (s), 0 min / Times of Observation of Catalepsy (s), 3 min / Times of Observation of Catalepsy (s), 6 min: mean ± SEM (n = 6). The format is in vivo, Wistar rats. As for the experimental part:
Haloperidol (dopamine D2 antagonist)-induced catalepsy in rodents is a popular model for screening of antiparkinsonian activity of compounds [21]. Caused symptoms in animals are similar to the inability of PD patients to initiate movements. […] The reversal of catalepsy was tested for 6 min (3 times in 3 min intervals) after 1 h of haloperidol administration. As the reference compound was used MSX-3, the adenosine A2A receptor antagonist with confirmed ability to reverse catalepsy mediated by D1 and D2 receptor antagonists.
Haloperidol-induced catalepsy was not reduced by DL-76 administrated at a dose of 25 mg/kg body weight (Table 3). After administration of DL-76 at a dose of 50 mg/kg body weight, low antiparkinsonian activity in the bar test was observed. […] This effect was weaker than the anti-Parkisonian activity of MSX-3.
The experiments were carried out on male rats Wistar (180–220 g). Animals were housed in plastic cages in room at a constant temperature of 20 ± 2 °C with natural light–dark cycles. The animals had free access to standard pellet diet and water and were used after a minimum of 3 days of acclimatization to the housing conditions. Control and experimental groups consisted of 6 animals each. All experimental procedures were performed according to the European Union Directive of 22 September 2010 (2010/63/EU) and Polish legislation concerning animal care and use and was approved by the Local Ethics Committee for Experiments on Animals in Kraków, Poland (Resolution No. 70/2014, approval date: 20 May 2014). The examined compound was administered as the suspension in 0.5% methylcellulose in constant volume of 10 mL/kg.
Antiparkinsonian activity in catalepsy tests was performed as described in [28]. Haloperidol was administered s.c. at a dose of 0.63 mg/kg, which in 100% of control animals caused catalepsy. Tested compounds were administered i.p. at the doses 50 and 25 mg/kg body weight, 5 min after haloperidol injection. After 60 min from the injection of haloperidol, to assess the occurrence of catalepsy, the animals were placed in a forced position and the time they remained in this position was measured. Two tests were performed to determine the antiparkinsonian activity: crossed leg position test and bar test. In the first test, the animals were put on the hind paws behind the front (forced position); in the second, the animals were supported on a wooden block (the front paws were placed on a block suspended 10 cm above the ground). Then, the time that the animals remain is measured in a forced position (time was measured to a maximum of 60 s). Observation was carried out 3 times in 3-min intervals. The shortening of the time of catalepsy to the control group was adopted for the antiparkinsonian activity.

The mark [4] stands for this setting: concentration used in kinetic studies.

SMILES strings stand for the structures.

A word on the IC20: it is the concentration needed for an effect of 20%. A high value points to a need for much substance. One may read the IC80 as the point of the concentration-response curve where the effect stands at 80%. The low end stands for greater potency, the high end for weaker potency. What is called IC50 is the concentration that inhibits the measured activity by half. Low values mean inhibition by little substance, high ones a need for much substance. In series [1] (setting [4]), `CC(C)(C)c1ccc(OCCCN2CCCCC2)cc1` [DL76, 1-(3-(4-tert-butylphenoxy)propyl)piperidine] showed an IC20 of 7 nM and an IC80 of 164 nM. Besides, in series [1] (mean ± SEM of 2-5 independent experiments, p-tyramine 200 μM), 48 ± 15 nM corresponded to half-maximal inhibition (IC50). Moreover, the HEK-293 cell viability result in series [2] is “observed only at the highest doses of 125 µM and 250 µM”. Also, the “reduction of haloperidol-induced catalepsy” value in series [3] (25 mg/kg body weight) is “not reduced”. Besides, in series [3] (25 mg/kg i.p.), the “Times of Observation of Catalepsy (s), 0 min” value turned out to be 19.5 ± 4.2 s; the “Times of Observation of Catalepsy (s), 3 min” value is given as 26.5 ± 3.5 s; the “Times of Observation of Catalepsy (s), 6 min” value is 30.0 ± 0 s. Moreover, in series [3] (50 mg/kg body weight), the “duration of catalepsy (versus control 25.8)” value came out at 16.4 and the “reduction of the duration of catalepsy compared to the control group” value was 36.4%. In series [3] (50 mg/kg i.p.), the “Times of Observation of Catalepsy (s), 0 min” value came to 13.8 ± 5.9 s; the “Times of Observation of Catalepsy (s), 3 min” value is listed as 13.5 ± 4.2 s; the “Times of Observation of Catalepsy (s), 6 min” value is reported as 22.0 ± 5.0 s.
